Results reported in article PMC6837341, “Evolutionarily conserved susceptibility of the mitochondrial respiratory chain to SDHI pesticides and its consequence on the impact of SDHIs on human cultured cells” (PLoS ONE, 2019).
pIC50: −log10 of the molar value.

Assays:
[1] = target: T1, glycerol-3-phosphate cytochrome c reductase (G3PDH+CIII) (Lumbricus terrestris, UniProt Q34945); assay: GCCR activity, earthworm homogenate; format: biochemical
T1 sequence (Q34945 1-379): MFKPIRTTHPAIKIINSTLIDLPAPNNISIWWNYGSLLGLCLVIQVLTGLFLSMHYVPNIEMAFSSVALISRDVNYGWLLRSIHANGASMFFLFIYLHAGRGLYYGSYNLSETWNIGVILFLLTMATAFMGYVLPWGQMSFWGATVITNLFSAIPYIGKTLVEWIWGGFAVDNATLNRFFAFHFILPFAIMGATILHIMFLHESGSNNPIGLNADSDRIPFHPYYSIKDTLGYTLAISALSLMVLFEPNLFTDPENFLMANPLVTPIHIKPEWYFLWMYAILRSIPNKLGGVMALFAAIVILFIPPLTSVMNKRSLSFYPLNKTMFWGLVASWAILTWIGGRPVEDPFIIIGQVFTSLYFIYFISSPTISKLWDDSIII
Procedure: L. terrestris individuals (n = 5) were collected manually in a household compost in Epernon (France 28230) and identified by the person (Paule Bénit) in charge of this compost. Before use, the worms were washed 5 times with 1× phosphate-buffered saline. A fresh homogenate was prepared from the segments located between the prostomium and clitellum of the 5 individuals. Tissues were placed in 500 μl of an ice-cold medium consisting of 20 mM Tris (pH 7.2), 0.25 M sucrose, 40 mM KCl, 2 mM EGTA, and 1 mg/ml BSA and homogenized using a 1-ml glass-glass Potter-Elvehjem homogenizer. Low-speed centrifugation at 1,500 g for 5 min allowed heavy debris to be discarded. The supernatant was distributed as 50-μl aliquots and kept frozen at -80°C.
(§1) RC enzyme activities were spectrophotometrically measured using a pseudo-double-wavelength spectrophotometer (Cary 60, Agilent). Malonate-sensitive succinate quinone dichlorophenolindophenol (DCPIP) reductase (SQDR), as an indicator of the activity of the isolated SDH enzyme (isolated CII), and glycerol-3-phosphate quinone DCPIP reductase (GQDR), as a measure of the activity of the isolated glycerol-3-phosphate dehydrogenase (G3PDH), were assayed as previously described. […] With this aim, we measured the malonate-sensitive succinate cytochrome c reductase (SDH+CIII), glycerol-3-phosphate cytochrome c reductase (G3PDH+CIII) and antimycin-sensitive quinol cytochrome c reductase (CIII) as previously described.
(§2) The effects of eight different SDHIs (up to 500 μM; S2 Fig) were determined on four different biological materials. Because IC50 are known to be affected by the actual absolute activity of the tested enzyme, these IC50 were quantified using similar levels of SDH enzyme activity during the assay. IC50 values were determined using the AAT Bioquest IC50 calculator tool (https://www.aatbio.com/tools/ic50-calculator).

[2] = target: T2, glycerol-3-phosphate cytochrome c reductase (G3PDH+CIII) (Botrytis cinerea, UniProt Q18ND9); assay: GCCR activity, Botrytis cinerea mitochondria; format: biochemical
T2 sequence (Q18ND9 1-391): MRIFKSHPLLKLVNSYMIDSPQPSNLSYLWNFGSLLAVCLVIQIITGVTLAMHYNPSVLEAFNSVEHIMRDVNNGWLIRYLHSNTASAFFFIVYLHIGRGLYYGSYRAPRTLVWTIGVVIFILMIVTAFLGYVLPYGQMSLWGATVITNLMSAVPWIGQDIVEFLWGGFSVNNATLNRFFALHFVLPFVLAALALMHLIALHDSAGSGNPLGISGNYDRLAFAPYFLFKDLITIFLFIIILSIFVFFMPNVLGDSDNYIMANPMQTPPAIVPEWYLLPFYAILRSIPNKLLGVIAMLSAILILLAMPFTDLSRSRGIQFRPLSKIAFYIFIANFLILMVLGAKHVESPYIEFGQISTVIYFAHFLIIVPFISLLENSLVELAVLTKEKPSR
Procedure: The mixed population of B. cinerea fungi used in this study was kindly provided by Dr. Joelle Dupont (Museum National d’Histoire Naturelle, Paris, France). Conidia from Botrytis cinerea were obtained from 15–30 d cultures grown on malt medium agar plates. Mycelial colonies were prepared by seeding conidia from 10 colonies in liquid medium (10 g of glucose, 2 g of KH2PO4, 0.5 g of MgSO47H2O, 1 g of (NH4)2SO4, 2 g of yeast extract and deionized water up to 1 l, pH 6.2). Incubation was performed at 23°C until hyphae totally covered the surface of the bottle. The hyphae (9-cm-diameter disks) were harvested, washed twice with refrigerated distilled water and finally with mitochondria extraction medium containing 20 mM Tris (pH 7.2), 0.25 M sucrose, 40 mM KCl, 2 mM EGTA, 1 mg/ml BSA, and no cysteine. The hyphae were suspended in 150 ml of extraction medium, cut in small pieces (1 cm^2) and then disrupted at high speed for 1×2 sec and at low speed for 2×3 sec using a MultiMoulinex mixer (Moulinex, France). The suspension of disrupted hyphae was then filtered through two layers of nylon cloth (clearance 150 μm). The cloth was washed with 50 ml of extraction medium. After low-speed centrifugation (700 g for 15 min), the mitochondria were collected at 10,000 g for 20 min. The pellet was suspended in 250 μl of extraction medium, aliquoted (± 30 μl) and kept frozen at -80°C.
as §1, §2

[3] = according to European regulations; ref European regulations; cited from earlier work

SMILES: Cn1cc(C(=O)Nc2ccc(F)cc2-c2ccc(Cl)c(Cl)c2)c(C(F)F)n1 [Bixafen, bixafen]
- pIC50 [1]: 3.35
- pIC50 [2]: 4.65

SMILES: CC(C)Oc1cccc(NC(=O)c2ccccc2C(F)(F)F)c1 [Flutolanil, flutolanil]
- ADI (Acceptable Daily Intake) [3]: 0.09 mg/kg/day

SMILES: Cn1cc(C(=O)Nc2ccccc2-c2cc(F)c(F)c(F)c2)c(C(F)F)n1 [Fluxapyroxad, fluxapyroxad]
- pIC50 [1]: < 3.30
- pIC50 [2]: 4.22

SMILES: CC(C)C1C2CCC1c1c(NC(=O)c3cn(C)nc3C(F)F)cccc12 (centres unmarked) [Isopyrazam, isopyrazam]
- pIC50 [1]: 4.08
- pIC50 [2]: 4.55
- ADI (Acceptable Daily Intake) [3]: 0.03 mg/kg/day

SMILES: Cc1nn(C)c(F)c1C(=O)Nc1ccccc1C(C)CC(C)C (centres unmarked) [Penflufen, penflufen]
- pIC50 [1]: < 3.30
- pIC50 [2]: 4.10
- ADI (Acceptable Daily Intake) [3]: 0.04 mg/kg/day
